In assay [1] the target is Serine/threonine-protein kinase MRCK alpha (Homo sapiens) (UniProt Q5VT25). Kind of assay: Selectivity interaction (Ambit KINOMEscan and KiNATiv profiling in Jurkat cells) EUB0000090b CDC42BPA. It is filed as cell-based. The settings on record: at 1 µM.
Assay [2] addresses T1, Serine/threonine-protein kinase Nek5 (Homo sapiens) (UniProt Q6P3R8).
T1 sequence (whole entry): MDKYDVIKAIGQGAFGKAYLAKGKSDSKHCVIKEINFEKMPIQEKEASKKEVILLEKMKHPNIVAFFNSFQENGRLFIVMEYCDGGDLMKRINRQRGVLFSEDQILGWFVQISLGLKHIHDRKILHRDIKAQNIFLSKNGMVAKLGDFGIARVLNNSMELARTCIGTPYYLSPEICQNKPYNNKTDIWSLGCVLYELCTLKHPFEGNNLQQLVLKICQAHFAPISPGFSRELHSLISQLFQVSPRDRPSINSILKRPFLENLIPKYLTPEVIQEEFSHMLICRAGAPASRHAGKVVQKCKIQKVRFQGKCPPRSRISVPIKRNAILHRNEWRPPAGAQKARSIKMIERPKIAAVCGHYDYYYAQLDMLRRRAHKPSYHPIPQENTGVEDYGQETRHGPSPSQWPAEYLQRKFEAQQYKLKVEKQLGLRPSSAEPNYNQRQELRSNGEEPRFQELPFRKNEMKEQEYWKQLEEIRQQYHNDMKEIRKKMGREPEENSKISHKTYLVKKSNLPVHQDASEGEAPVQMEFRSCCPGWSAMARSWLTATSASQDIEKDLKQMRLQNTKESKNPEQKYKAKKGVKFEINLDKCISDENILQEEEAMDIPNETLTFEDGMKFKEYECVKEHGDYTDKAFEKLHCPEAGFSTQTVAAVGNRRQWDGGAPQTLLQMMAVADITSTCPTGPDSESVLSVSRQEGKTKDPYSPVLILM
To be noted: at 10 µM.

Assay [3] addresses Cyclin-dependent kinase 18 (Homo sapiens) (UniProt Q07002). To be noted: at 10 µM.
The target in assay [4] is Death-associated protein kinase 1 (Homo sapiens, UniProt P53355). In words: Selectivity interaction (KinomeScan (DiscoverX)) EUB0001079a DAPK1. To be noted: at 1 µM.
Death-associated protein kinase 1, sequence (P53355 whole entry, looked up): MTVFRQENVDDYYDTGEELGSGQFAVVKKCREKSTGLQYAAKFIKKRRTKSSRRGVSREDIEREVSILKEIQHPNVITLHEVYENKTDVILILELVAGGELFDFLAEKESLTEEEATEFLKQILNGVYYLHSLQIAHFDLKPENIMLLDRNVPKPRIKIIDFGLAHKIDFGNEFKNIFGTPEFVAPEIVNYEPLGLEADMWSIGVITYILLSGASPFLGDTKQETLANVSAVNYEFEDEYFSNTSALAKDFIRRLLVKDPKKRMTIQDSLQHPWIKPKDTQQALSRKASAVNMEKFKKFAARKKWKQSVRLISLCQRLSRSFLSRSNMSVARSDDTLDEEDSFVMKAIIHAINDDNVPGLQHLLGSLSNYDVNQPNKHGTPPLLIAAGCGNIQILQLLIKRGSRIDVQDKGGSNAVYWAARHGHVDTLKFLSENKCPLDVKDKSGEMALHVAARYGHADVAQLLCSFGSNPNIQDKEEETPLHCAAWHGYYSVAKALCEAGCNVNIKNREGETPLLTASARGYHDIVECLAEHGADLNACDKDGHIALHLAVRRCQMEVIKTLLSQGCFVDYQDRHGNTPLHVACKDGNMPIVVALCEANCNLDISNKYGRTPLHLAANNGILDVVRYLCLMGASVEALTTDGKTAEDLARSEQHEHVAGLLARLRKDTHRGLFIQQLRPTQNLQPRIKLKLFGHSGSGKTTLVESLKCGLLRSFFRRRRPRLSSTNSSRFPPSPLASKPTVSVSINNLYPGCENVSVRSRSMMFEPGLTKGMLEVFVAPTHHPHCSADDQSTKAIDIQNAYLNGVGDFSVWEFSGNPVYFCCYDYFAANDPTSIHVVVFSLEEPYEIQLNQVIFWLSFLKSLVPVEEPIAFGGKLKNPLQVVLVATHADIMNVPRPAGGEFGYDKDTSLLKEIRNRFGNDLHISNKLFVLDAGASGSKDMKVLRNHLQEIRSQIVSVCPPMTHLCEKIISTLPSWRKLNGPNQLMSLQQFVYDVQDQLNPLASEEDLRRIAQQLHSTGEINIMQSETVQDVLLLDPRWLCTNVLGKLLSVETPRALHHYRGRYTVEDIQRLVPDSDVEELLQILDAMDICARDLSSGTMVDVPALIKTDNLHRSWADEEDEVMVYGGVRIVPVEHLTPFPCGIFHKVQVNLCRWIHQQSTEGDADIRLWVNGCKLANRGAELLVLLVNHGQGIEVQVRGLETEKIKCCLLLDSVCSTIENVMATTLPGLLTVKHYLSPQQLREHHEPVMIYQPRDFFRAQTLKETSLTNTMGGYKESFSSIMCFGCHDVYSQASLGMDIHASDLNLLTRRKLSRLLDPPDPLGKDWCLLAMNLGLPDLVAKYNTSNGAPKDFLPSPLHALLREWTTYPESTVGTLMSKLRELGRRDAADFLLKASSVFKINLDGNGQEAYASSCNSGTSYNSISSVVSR
Assay [5] concerns the target Ribosomal protein S6 kinase alpha-3 (Homo sapiens, UniProt P51812). Kind of assay: Selectivity interaction (KinomeScan (DiscoverX)) EUB0001079a RPS6KA3. The settings on record: at 1 µM.
Assay [6] addresses Tyrosine-protein kinase Yes (Homo sapiens) (UniProt P07947). In words: Selectivity interaction (Kinase screening (Nanosyn)) EUB0000604a YES1.
The target in assay [7] is MAP kinase-activated protein kinase 3 (Homo sapiens) (UniProt Q16644). In words: Selectivity interaction (Kinase panel (Z-LYTE Assay)) EUB0001632a MAPKAPK3. To be noted: at 10 µM.
Assay [8] concerns the target SRSF protein kinase 3 (Homo sapiens) (UniProt Q9UPE1). In words: Selectivity interaction (KinomeScan (DiscoverX)) EUB0000607a SRPK3. The settings on record: at 10 µM.
The target of assay [9] is Ribosomal protein S6 kinase alpha-2 (Homo sapiens) (UniProt Q15349). In words: Selectivity interaction (ActivX KiNativ screen (kinase selectivity in THP-1 cell lysates)) EUB0000639a RPS6KA2. It is filed as subcellular. The settings on record: lysate, at 0.04 µM.
The target in assay [10] is Homeodomain-interacting protein kinase 3 (Homo sapiens, UniProt Q9H422). In words: Selectivity interaction (Kinase panel (Invitrogen)) EUB0000639a HIPK3. The settings on record: at 200 nM.
Assay [11] concerns the target T2, Serine/threonine-protein kinase ULK1 (Homo sapiens) (UniProt O75385).
T2 sequence (whole entry): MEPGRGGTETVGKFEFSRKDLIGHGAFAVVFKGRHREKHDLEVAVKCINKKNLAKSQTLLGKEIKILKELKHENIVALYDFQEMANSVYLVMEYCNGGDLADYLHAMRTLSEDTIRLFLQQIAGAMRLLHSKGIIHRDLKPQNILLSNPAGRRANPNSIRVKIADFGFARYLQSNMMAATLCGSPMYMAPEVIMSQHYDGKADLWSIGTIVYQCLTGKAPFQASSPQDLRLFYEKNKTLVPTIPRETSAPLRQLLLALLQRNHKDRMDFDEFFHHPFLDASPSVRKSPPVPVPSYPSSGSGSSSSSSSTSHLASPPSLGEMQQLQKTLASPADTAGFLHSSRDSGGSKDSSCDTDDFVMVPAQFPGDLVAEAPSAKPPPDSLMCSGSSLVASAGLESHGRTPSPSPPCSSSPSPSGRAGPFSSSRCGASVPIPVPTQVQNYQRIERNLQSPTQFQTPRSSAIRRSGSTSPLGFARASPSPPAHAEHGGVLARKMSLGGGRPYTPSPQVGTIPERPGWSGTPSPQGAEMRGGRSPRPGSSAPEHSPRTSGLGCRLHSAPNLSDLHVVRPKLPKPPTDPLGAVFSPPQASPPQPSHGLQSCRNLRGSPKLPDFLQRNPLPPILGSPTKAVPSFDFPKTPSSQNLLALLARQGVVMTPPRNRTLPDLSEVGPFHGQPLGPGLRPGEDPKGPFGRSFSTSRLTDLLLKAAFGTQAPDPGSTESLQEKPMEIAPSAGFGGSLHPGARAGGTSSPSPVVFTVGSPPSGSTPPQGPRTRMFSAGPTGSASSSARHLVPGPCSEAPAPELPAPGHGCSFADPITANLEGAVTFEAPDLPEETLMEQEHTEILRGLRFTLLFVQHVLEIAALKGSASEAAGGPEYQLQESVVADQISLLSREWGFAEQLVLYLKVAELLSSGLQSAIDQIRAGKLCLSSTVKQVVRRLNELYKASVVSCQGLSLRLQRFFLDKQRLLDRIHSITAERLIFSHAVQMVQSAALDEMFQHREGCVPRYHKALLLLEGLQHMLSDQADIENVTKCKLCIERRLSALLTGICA
Kind of assay: Selectivity interaction (KinomeScan (DiscoverX)) EUB0000595a ULK1. To be noted: at 10 µM.

Ribosomal protein S6 kinase alpha-3, sequence (P51812 whole entry): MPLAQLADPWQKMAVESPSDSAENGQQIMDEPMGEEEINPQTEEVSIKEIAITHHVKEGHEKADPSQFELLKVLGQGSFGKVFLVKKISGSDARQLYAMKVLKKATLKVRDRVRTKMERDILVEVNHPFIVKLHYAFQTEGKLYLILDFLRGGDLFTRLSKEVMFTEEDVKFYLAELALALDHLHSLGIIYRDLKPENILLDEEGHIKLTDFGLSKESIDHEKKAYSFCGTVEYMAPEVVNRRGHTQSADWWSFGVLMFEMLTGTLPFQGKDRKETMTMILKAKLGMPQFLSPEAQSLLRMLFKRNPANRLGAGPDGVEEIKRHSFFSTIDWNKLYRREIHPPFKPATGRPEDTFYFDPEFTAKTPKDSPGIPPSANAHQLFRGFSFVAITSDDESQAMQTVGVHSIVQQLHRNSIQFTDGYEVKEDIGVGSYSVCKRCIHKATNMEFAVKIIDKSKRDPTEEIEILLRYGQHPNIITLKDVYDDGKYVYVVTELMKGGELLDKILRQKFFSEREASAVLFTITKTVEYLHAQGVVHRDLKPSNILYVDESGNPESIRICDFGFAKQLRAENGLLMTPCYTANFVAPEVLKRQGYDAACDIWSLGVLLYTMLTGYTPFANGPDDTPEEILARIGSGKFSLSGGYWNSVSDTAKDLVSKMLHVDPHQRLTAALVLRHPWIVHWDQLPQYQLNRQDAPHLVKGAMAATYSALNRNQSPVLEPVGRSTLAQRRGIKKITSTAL
SRSF protein kinase 3 (Homo sapiens), sequence (Q9UPE1 whole entry): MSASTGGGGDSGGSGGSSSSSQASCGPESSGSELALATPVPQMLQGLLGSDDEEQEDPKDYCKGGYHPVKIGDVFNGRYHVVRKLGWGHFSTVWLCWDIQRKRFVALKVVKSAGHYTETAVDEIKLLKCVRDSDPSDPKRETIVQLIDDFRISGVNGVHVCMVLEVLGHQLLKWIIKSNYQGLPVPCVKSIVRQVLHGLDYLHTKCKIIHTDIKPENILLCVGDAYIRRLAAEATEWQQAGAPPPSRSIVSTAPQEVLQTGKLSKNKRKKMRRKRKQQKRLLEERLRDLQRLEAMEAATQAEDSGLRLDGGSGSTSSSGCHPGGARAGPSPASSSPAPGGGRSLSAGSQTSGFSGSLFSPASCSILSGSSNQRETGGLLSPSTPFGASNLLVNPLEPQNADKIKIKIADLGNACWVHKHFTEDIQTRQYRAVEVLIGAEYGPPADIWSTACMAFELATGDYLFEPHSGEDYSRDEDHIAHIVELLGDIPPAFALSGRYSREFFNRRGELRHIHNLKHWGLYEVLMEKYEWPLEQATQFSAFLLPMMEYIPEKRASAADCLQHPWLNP
Serine/threonine-protein kinase MRCK alpha (Homo sapiens), sequence (Q5VT25 whole entry): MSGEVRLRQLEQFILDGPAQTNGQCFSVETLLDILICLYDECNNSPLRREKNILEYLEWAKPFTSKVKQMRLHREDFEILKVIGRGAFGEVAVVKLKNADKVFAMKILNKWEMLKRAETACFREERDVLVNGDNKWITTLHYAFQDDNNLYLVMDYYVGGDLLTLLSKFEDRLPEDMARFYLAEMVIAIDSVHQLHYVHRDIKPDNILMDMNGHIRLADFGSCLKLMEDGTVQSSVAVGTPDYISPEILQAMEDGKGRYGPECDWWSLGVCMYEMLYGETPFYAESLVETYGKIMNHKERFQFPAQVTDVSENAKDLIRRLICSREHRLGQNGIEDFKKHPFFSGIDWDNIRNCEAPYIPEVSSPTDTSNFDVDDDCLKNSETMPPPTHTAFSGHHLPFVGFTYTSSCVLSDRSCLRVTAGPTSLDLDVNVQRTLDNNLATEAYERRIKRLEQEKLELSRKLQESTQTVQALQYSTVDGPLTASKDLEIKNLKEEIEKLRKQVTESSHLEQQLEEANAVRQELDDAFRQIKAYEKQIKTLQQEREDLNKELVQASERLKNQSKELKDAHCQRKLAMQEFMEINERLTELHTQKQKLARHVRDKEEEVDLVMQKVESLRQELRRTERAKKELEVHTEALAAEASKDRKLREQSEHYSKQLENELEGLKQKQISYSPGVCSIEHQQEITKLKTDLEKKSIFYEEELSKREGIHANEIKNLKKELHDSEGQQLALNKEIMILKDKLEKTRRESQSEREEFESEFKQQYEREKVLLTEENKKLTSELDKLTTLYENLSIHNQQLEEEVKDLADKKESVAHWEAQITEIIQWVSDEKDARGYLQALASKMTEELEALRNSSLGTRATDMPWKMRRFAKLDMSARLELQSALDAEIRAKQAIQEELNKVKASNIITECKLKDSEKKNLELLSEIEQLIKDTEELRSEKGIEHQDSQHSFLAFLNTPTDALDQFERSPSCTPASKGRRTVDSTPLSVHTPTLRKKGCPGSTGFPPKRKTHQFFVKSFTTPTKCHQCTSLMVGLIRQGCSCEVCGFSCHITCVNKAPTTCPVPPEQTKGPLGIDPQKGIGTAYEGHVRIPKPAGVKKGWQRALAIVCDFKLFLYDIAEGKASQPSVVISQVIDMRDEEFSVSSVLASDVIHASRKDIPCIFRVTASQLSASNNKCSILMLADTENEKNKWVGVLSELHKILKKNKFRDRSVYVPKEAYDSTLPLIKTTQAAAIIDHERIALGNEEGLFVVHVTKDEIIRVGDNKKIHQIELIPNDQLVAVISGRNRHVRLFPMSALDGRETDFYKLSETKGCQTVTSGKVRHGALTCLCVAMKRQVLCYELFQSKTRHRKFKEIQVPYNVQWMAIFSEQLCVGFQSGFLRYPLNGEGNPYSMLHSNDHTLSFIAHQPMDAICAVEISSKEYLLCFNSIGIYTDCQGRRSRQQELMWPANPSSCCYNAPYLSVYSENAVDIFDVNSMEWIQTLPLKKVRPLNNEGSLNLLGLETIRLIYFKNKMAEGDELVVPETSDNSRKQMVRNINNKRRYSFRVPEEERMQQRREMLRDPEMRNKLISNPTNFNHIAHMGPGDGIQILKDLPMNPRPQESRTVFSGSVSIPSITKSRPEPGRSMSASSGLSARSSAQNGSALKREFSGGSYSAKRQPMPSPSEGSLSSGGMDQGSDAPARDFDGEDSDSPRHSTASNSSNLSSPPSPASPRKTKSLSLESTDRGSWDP
Tyrosine-protein kinase Yes (Homo sapiens), sequence (P07947 2-543 limits assumed): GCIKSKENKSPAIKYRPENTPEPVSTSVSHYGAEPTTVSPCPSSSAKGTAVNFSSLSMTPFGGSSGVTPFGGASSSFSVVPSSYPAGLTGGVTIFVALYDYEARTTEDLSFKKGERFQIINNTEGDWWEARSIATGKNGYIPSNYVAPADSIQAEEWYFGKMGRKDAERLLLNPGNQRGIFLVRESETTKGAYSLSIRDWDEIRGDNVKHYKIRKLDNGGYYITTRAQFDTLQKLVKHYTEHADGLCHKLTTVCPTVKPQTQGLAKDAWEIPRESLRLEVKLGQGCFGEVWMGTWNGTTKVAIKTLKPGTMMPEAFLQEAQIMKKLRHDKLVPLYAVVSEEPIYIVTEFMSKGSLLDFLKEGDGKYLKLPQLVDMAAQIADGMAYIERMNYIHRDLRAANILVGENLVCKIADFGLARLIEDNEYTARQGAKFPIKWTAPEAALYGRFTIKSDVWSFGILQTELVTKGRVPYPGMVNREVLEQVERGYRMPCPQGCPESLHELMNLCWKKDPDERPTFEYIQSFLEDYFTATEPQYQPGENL

`CN(C)C/C=C/C(=O)Nc1ccc(C(=O)N2CCCC(Nc3ncc(Cl)c(-c4c[nH]c5ccccc45)n3)C2)cc1` (stereo unspecified) gave a % of control in assay [1] of 86%. On to `CCN(CC)CCCCNc1ncc2cc(-c3cc(OC)cc(OC)c3)c(NC(=O)NC(C)(C)C)nc2n1`, for which the % of control in [2] and in [3] was 100% throughout. On to `Nc1cnc(N2CCc3cc(S(=O)(=O)Nc4c(F)cc(Cl)cc4F)cc(N4CCCC4=O)c32)nc1` [TP-020n], for which the % of control stood at 100% in assay [4] and 84% in [5].

Turning to `Cc1cnc(Nc2ccc(F)cc2Cl)nc1-c1c[nH]c(C(=O)N[C@H](CO)c2cccc(Cl)c2)c1`, in assay [6], the % of inhibition worked out at 5%. Compound `Cn1cc(-n2cnc3c(NCc4nc5cc(Cl)c(Cl)cc5[nH]4)nc(N4CCOCC4)nc32)cn1` came in with a % of control in assay [7] of 2.63%. `CNC(=O)Nc1ccc(-c2nc(N3CC4CCC(C3)O4)c3cnn(C4CCC5(CC4)OCCO5)c3n2)cc1` returned a % of control in assay [8] of 100%. In the case of `CC[C@@H]1[C@H](F)C(=O)N[C@@H]1COc1nccc2cc(C(N)=O)c(OC)cc12` [ZIMLOVISERTIB], the results for the % of inhibition in [9] and in [10] were -7.6% and 5.1%, respectively.

In turn, `COCC(=O)NC/C=C/c1ccc2ncnc(Nc3ccc(Oc4ccc(C)nc4)c(C)c3)c2c1` [CP-724714] yielded a % of control in assay [11] of 47%.

For the origin of these results see ChEMBL document CHEMBL5465560, “Selectivity Literature for EUbOPEN Chemogenomic Library” (2024).
